Measurements taken from ChEMBL document CHEMBL1151717, “In vivo active aldosterone synthase inhibitors with improved selectivity: lead optimization providing a series of pyridine substituted 3,4-dihydro-1H-quinolin-2-one derivatives” (J Med Chem, 2008).

Columns and labels:
[1] = target: Cytochrome P450 2D6 (Homo sapiens, UniProt P10635); assay: Inhibition of human recombinant CYP2D6 expressed in baculovirus-infected insect microsomes; format: ADME, Microsome
[2] = Terminal half life in Wistar rat at 25 mg/kg, po; format: ADME, organism-based; design: dose 25 mg/kg, route oral; details: in vivo, read-out: beta t1/2 (converted)
[3] = target: T1, Cytochrome P450 11B2, mitochondrial (Homo sapiens, UniProt P19099); assay: Inhibition of human CYP11B2 expressed in hamster V79 MZh cells at 500 nM; format: cell-based; details: V79MZh
T1 sequence (P19099 whole entry): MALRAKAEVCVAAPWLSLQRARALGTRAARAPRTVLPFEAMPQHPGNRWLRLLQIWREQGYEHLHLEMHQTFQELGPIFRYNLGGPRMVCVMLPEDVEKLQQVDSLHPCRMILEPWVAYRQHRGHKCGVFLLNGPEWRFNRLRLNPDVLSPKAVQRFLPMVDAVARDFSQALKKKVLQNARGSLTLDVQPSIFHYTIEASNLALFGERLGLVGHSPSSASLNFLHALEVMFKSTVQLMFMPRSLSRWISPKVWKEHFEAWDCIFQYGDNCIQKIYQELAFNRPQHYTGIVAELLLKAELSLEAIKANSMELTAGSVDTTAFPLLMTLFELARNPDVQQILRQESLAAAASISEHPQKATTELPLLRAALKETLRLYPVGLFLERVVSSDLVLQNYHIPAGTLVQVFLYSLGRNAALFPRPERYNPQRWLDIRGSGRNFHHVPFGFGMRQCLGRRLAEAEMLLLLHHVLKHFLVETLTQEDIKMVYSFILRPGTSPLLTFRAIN

[4] = Cmax in Wistar rat at 25 mg/kg, po; format: ADME, organism-based; design: dose 25 mg/kg, route oral; details: in vivo
[5] = AUC (0 to infinity) in Wistar rat at 25 mg/kg, po; format: ADME, organism-based; design: time infinity, dose 25 mg/kg, route oral; details: plasma
[6] = Tmax in Wistar rat at 25 mg/kg, po; format: ADME, organism-based; design: dose 25 mg/kg, route oral; details: in vivo
[7] = target: T2, CYP19 (aromatase) (Homo sapiens, UniProt P11511); assay: Inhibition of human placental CYP19 at 500 nM; format: functional
T2 sequence (P11511 whole entry): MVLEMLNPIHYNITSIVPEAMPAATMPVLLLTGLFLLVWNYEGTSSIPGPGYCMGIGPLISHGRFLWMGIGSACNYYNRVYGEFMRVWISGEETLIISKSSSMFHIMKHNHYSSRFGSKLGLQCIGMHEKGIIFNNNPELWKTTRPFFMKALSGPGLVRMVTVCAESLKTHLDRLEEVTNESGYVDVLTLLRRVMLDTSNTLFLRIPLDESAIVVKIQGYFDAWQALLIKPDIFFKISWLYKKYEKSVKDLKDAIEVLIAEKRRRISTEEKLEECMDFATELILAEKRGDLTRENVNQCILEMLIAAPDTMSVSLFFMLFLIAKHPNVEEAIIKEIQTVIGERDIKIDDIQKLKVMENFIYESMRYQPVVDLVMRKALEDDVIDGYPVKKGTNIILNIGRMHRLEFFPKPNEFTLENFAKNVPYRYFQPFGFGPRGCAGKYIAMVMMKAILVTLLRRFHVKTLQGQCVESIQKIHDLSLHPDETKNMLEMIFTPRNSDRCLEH

[8] = test system: Rattus norvegicus; assay: Plasma concentration in Wistar rat at 25 mg/kg, po after 0.5 to 8 hrs; format: ADME, organism-based; design: dose 25 mg/kg, route oral; details: in vivo
[9] = test system: Rattus norvegicus; assay: Reduction of ACTH-induced aldosterone level in Wistar rat plasma at 20 mg/kg, iv administered 16 hrs after ACTH challenge after 0.5 to 3 hrs; design: scale not given: the % may be the effect or the level left
[10] = Cmax in Wistar rat at 5 mg/kg, po by cassette dosing; format: ADME, organism-based; design: dose 5 mg/kg, route oral; details: in vivo
[11] = AUC (0 to infinity) in Wistar rat at 5 mg/kg, po by cassette dosing; format: ADME, organism-based; design: time infinity, dose 5 mg/kg, route oral; details: plasma
[12] = Tmax in Wistar rat at 5 mg/kg, po by cassette dosing; format: ADME, organism-based; design: dose 5 mg/kg, route oral; details: in vivo
[13] = Terminal half life in Wistar rat at 5 mg/kg, po by cassette dosing; format: ADME, organism-based; design: dose 5 mg/kg, route oral; details: in vivo, read-out: beta t1/2 (converted)
[14] = Protein binding in rat plasma at 3 uM after 1 hr; format: ADME, cell-free; details: read-out: PPB (converted)
[15] = test system: U-937; assay: Cytotoxicity against human U937 cells assessed as reduction of survival fraction at >100 uM by fluorimetric alamar blue assay; format: cell-based
[16] = Protein binding in human plasma at 3 uM after 1 hr; format: ADME, cell-free; details: read-out: PPB (converted)

Cytochrome P450 2D6, sequence (P10635 whole entry): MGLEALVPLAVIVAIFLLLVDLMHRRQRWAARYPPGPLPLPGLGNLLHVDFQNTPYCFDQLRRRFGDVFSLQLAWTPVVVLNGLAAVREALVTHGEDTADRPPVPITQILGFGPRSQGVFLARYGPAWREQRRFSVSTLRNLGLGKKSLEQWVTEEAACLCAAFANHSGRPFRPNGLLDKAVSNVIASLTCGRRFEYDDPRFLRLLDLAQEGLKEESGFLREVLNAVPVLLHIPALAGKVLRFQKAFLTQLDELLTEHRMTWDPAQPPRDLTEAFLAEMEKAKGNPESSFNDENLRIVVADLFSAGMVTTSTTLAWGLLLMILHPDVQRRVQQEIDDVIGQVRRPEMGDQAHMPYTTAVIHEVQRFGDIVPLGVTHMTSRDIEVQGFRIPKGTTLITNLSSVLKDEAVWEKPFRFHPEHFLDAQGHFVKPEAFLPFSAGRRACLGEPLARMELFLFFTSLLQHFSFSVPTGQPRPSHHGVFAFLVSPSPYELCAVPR

| Structure (SMILES) | IC50 ([1]; read-out: IC50) [µM] | half-life [2] [h] | inhibition at 0.5 µM [3] [%] | Cmax [4] [ng/mL] | AUC(0-inf) [5] [ng·h/mL] | Tmax [6] [h] | inhibition at 0.5 µM [7] [%] | Cp [8] [ng/mL] | Activity [9] [%] | IC50 [1] [µM] | Cmax [10] [ng/mL] | AUC(0-inf) [11] [ng·h/mL] | Tmax [12] [h] | half-life [13] [h] | fraction unbound at 1 h, 3 µM [14] | Activity [15] | fraction unbound at 1 h, 3 µM [16] |
| --- | --- | --- | --- | --- | --- | --- | --- | --- | --- | --- | --- | --- | --- | --- | --- | --- | --- |
| O=C1CCc2cc(-c3cncc4ccccc34)ccc2N1 | < 50 | 2.9 | 94 | 134 | 1660 | 2 | < 5 | 90 | 36 | – | – | – | – | – | – | – | – |
| COc1cncc(-c2ccc3c(c2)CCC(=O)C3)c1 | – | – | 94 | – | – | – | 58 | – | – | < 200 | 35 | 212 | 4 | 3.9 | – | – | – |
| O=C1CCc2cc(-c3cccnc3)ccc2C1 | 171 | – | 97 | – | – | – | 31 | – | – | – | 104 | 727 | 4 | 3.5 | 0.75 | Toxic | 0.76 |
